Data published in patent US20220146526A1, “METHOD FOR EVALUATING SAMPLE, ANALYSIS METHOD, METHOD FOR DETECTING DEGRADED SAMPLE, MARKER FOR DETECTING DEGRADED BLOOD PLASMA SAMPLE, AND MARKER FOR DETECTING DEGRADED SERUM SAMPLE” (SHIMADZU CORPORATION, priority 2019, published 2022).
Each block holds one molecule with its values, some of them ahead of it.

Assays:
Type in all cases: physicochemical, human
[1] = GC/MS of serum sample: number of times of freezing and thawing (Table I); design: key to Rate of increase or decrease / Rate of increase or decrease (first value, increase): detection intensity relative to 2 freeze-thaw cycles = 1
Summary of the method: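 Serum was isolated after centrifugation at room temperature (3500 rpm, 5 min), frozen, and put through 2, 4, 6 or 10 freeze–thaw cycles. Samples were methoxymated and trimethylsilylated, then run by electron-ionization GC/MS in MRM mode on a BPX5 column (60 to 330 °C). Detection intensity is given relative to the 2-cycle sample, set as 1.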

[2] = GC/MS of blood plasma sample: time from blood collection to cooling of blood (Table B); design: key to Rate of increase or decrease / Rate of increase or decrease (first value, increase): detection intensity relative to 1 at cooling time ≤1 min; conditions: for Increase or decrease: detection intensity, blood collection to cooling 5 minutes or more vs 1 minute or less
Method: (§1) At room temperature, 5 mL of blood from a healthy subject was taken into a blood-collecting vessel containing EDTA, and the blood-collecting vessel was inverted for mixing, then cooled, and allowed to stand at 4° C. Here, in order to investigate how the detection intensity of molecules contained in the sample was affected in a case where the time to cooling was set to 5 minutes or more as compared to that in a case where the time to cooling was set to 1 minute or less, preparations were performed under both the former condition and the latter condition. After standing, the blood sample was subjected to centrifugation under a condition of 4° C., 3000 rpm, and 15 minutes. […] After centrifugation, the blood-collecting vessel was left to stand at room temperature for 30 minutes, and the blood plasma was isolated during this 30 minutes. The obtained blood plasma sample was frozen and stored. Here, in order to investigate how the detection intensity of molecules contained in the sample was affected in cases where freezing and thawing was performed 4 times, 6 times, and 10 times after freezing as compared to that in a case where freezing and thawing was performed 2 times after freezing, freezing and thawing was performed under the respective conditions of 2, 4, 6, and 10 times.
(§2) Frozen blood plasma samples and serum samples were subjected to GC/MS or LC/MS. In GC/MS, the blood plasma samples and serum samples were subjected to methoxymation and trimethylsilylation and then introduced to GC-MS.
GC/MS was conducted using GCMS·TQ8040 (Shimadzu Corporation) that was a GC·MS equipped with AOC·20i (Shimadzu Corporation) as an autosampler.
Column: BPX5 (inner diameter of 0.25 mm, length of 30 m, and film thickness of 0.25 μm) (SGE)
Column temperature: maintained at 60° C. for 2 minutes, then raised at 15° C./min, and maintained at 330° C. for 3 minutes.
Inlet temperature: 250° C.
Carrier gas control mode: constant linear velocity of 39.0 cm/sec
Sample introduction method: split (split ratio of 30:1) Injection volume: 1 μL
Ionization method: electron ionization
Ionization current: 60 μA
Interface temperature: 280° C.
Ion source temperature: 200° C.
(§3) Mode: multiple reaction monitoring (MRM)
Table B presents compounds of which the detection intensity increased or decreased by 30% or more in a case where the time from blood collection to cooling of blood, when a blood plasma sample was analyzed by GC/MS, was set to 5 minutes or more as compared to that in a case where the time was set to 1 minute or less. The rate of increase or decrease in Table B is the value of detection intensity relative to 1 that is the detection intensity in a case where the time from blood collection to cooling is set to 1 minute or less.

[3] = LC/MS of serum sample: time from blood collection to centrifugation (Table J); conditions: for Rate of increase or decrease: detection intensity relative to 1 at 15 minutes; for Increase or decrease / Time when compound is affected: serum sample, LC/MS; for Increase or decrease: detection intensity vs 15 minutes from blood collection to centrifugation; for Time when compound is affected: time from blood collection to centrifugation, detection intensity changed by 30% or more vs 15 minutes
Method: After standing, the blood sample was subjected to centrifugation under a condition of room temperature, 3500 rpm, and 5 minutes. […] After centrifugation, the blood-collecting vessel was left to stand at room temperature, and the serum was isolated during this time. Here, in order to investigate how the detection intensity of molecules contained in the sample was affected in cases where the time during which the blood-collecting vessel was left at room temperature was set to 1 hour and 6 hours as compared to that in a case where the time was set to 30 minutes, preparations were performed under the respective conditions of 30 minutes, 1 hour, and 6 hours. The obtained serum sample was frozen and stored. Here, in order to investigate how the detection intensity of molecules contained in the sample was affected in cases where freezing and thawing was performed 4 times, 6 times, and 10 times after freezing as compared to that in a case where freezing and thawing was performed 2 times after freezing, freezing and thawing was performed under the respective conditions of 2, 4, 6, and 10 times.
as §2
(§4) Analysis column: Discovery HS F5-3 (inner diameter of 2.1 mm, length of 150 mm, film thickness of 3 μm) (Sigma-Aldrich)
(§5) Column temperature: 40° C.
(§6) (A) 0.1% formic acid (dissolved in water)
(§7) (B) 0.1% formic acid (dissolved in acetonitrile)
(§8) Flow velocity: 0.25 mL/min
(§9) Ionization method: electrospray
(§10) Temperature: • Desolvation Line (DL) temperature: 250° C. • Heat block temperature: 400° C. • Interface temperature: 300° C.
(§11) Gas flow rate: • Nebulizer gas flow rate: 3.0 L/min • Drying gas flow rate: 10.0 L/min • Heating gas flow rate: 10.0 L/min
as §3
The rate of increase or decrease in Table J is the value of detection intensity relative to 1 that is the detection intensity in a case where the time from blood collection to centrifugation is set to 15 minutes.

[4] = LC/MS of serum sample: number of times of freezing and thawing (Table M); design: key to Rate of increase or decrease: detection intensity relative to 1 at 2 freeze-thaw cycles; conditions: for Rate of increase or decrease: detection intensity relative to 1 at 2 times; for Number of times when compound is affected / Increase or decrease: serum sample, LC/MS; for Number of times when compound is affected: detection intensity changed by 30% or more vs 2 times of freezing and thawing; for Increase or decrease: detection intensity vs 2 times of freezing and thawing
Summary of the method: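 Serum was isolated at room temperature after centrifugation at room temperature, 3500 rpm, 5 minutes, then frozen and freeze-thawed 2, 4, 6 or 10 times. LC/MS used a Discovery HS F5-3 column at 40° C with formic acid water/acetonitrile, electrospray MRM. Intensity is relative to 2 freeze-thaw cycles.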

[5] = LC/MS of blood plasma sample: number of times of freezing and thawing (Table F); conditions: for Rate of increase or decrease: detection intensity relative to 1 at 2 times; for Increase or decrease: detection intensity
Method: as §1, §2, §4, §5, §6, §7, §8, §9, §10, §11, §3
The rate of increase or decrease in Table F is the value of detection intensity relative to 1 that is the detection intensity in a case where the number of times of freezing and thawing is set to 2 times.

[6] = LC/MS of blood plasma sample: time from blood collection to centrifugation (Table D); conditions: blood collection to centrifugation; for Rate of increase or decrease: detection intensity relative to 1 at 15 minutes; for Increase or decrease: detection intensity
Summary of the method: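 Healthy-subject blood (5 mL, EDTA) cooled and held at 4 °C before centrifugation (4 °C, 3000 rpm, 15 min), with plasma then frozen. LC/MS on Discovery HS F5-3 column at 40 °C, 0.1% formic acid water/acetonitrile, 0.25 mL/min, electrospray, MRM; intensities relative to 15 min collection-to-centrifugation set as 1.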

[7] = GC/MS of serum sample: time from centrifugation to isolation (Table H); design: key to Rate of increase or decrease / Rate of increase or decrease (first value, increase): detection intensity relative to 1 at 30 min centrifugation-to-isolation
Summary of the method: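 Blood was centrifuged at room temperature, 3500 rpm, 5 min, and the vessel left at room temperature for 30 min, 1 h or 6 h before serum isolation. Serum was methoxymated, trimethylsilylated and analysed by GC/MS with electron ionization in MRM mode; intensities expressed relative to the 30-min condition (=1).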

[8] = GC/MS of serum sample: time from blood collection to centrifugation (Table G); conditions: blood collection to centrifugation
Summary of the method: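 Blood was held for varying times before centrifugation (room temperature, 3500 rpm, 5 min); serum was frozen, then methoxymated and trimethylsilylated for GC/MS with electron ionization in MRM mode. Values are detection intensities relative to the 15-minute collection-to-centrifugation condition, set as 1.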

Rate of increase or decrease ([1]; detection intensity relative to 1 at 2 times, serum, GC/MS, freezing and thawing 4 times): 0.63 | Increase or decrease ([1]; detection intensity, serum, GC/MS, freezing and thawing 4 times vs 2 times): Decrease | Rate of increase or decrease ([2]; detection intensity relative to 1 at 1 minute or less, blood collection to cooling 5 minutes): 1.37 | Increase or decrease [2]: Increase
Structure (SMILES): O=CC(=O)O [Glyoxylic acid]

Rate of increase or decrease ([3]; after 12 hours from blood collection to centrifugation): 1.35 | Increase or decrease [3]: Increase | Time when compound is affected [3]: After 12 hours | Rate of increase or decrease ([4]; 6 times of freezing and thawing): 0.66 | Number of times when compound is affected [4]: 6 times | Increase or decrease [4]: Decrease | Rate of increase or decrease ([5]; freezing and thawing 10 times): 1.35 | Increase or decrease ([5]; freezing and thawing 10 times vs 2 times): Increase | Rate of increase or decrease ([6]; after 12 hours): 0.69 | Increase or decrease ([6]; after 12 hours vs 15 minutes): Decrease
Structure (SMILES): CC(C)C[C@H](N)C(=O)O [Leucine]

Rate of increase or decrease ([1]; 10 times of freezing and thawing, relative to 1 at 2 times, different from individual to individual, first value (increase)): 2.65 | Rate of increase or decrease ([1]; 10 times of freezing and thawing, relative to 1 at 2 times, different from individual to individual, second value (decrease)): 0.63 | Number of times when compound is affected ([1]; serum sample, GC/MS, detection intensity changed by 30% or more vs 2 times of freezing and thawing): 10 times | Increase or decrease ([1]; serum sample, GC/MS, detection intensity vs 2 times of freezing and thawing): Different from individual | Increase or decrease [2]: Different from individual | Rate of increase or decrease (second value, decrease) ([2]; different from individual to individual, individuals with decrease, relative to 1 at 1 minute or less, collection to cooling 5 minutes): 0.67 | Rate of increase or decrease (first value, increase) ([2]; different from individual to individual, individuals with increase, relative to 1 at 1 minute or less, collection to cooling 5 minutes): 2.33 | Increase or decrease ([7]; detection intensity, after 6 hours vs 30 minutes): Different from individual | Rate of increase or decrease (second value, decrease) ([7]; different from individual to individual, individuals with decrease, relative to 1 at 30 minutes, after 6 hours): 0.61 | Rate of increase or decrease (first value, increase) ([7]; different from individual to individual, individuals with increase, relative to 1 at 30 minutes, after 6 hours): 2.04 | Rate of increase or decrease ([8]; detection intensity relative to 1 at 15 minutes, after 4 hours): 2.98 | Increase or decrease ([8]; detection intensity, after 4 hours vs 15 minutes): Increase
Structure (SMILES): Cn1c(=O)[nH]c2ncn(C)c2c1=O [Paraxanthine]

Rate of increase or decrease ([3]; after 6 hours from blood collection to centrifugation): 1.57 | Increase or decrease [3]: Increase | Time when compound is affected [3]: After 6 hours | Rate of increase or decrease ([4]; 4 times of freezing and thawing): 1.47 | Number of times when compound is affected [4]: 4 times | Increase or decrease [4]: Increase | Rate of increase or decrease ([5]; freezing and thawing 4 times): 1.46 | Increase or decrease ([5]; freezing and thawing 4 times vs 2 times): Increase | Rate of increase or decrease ([6]; after 4 hours): 0.50 | Rate of increase or decrease ([6]; after 6 hours): 0.61 | Increase or decrease ([6]; after 4 hours vs 15 minutes): Decrease | Increase or decrease ([6]; after 6 hours vs 15 minutes): Decrease
Structure (SMILES): O=C(O)CCC(=O)O [Succinic acid]
